Results as given in US8957238B2, “Process for preparing malathion for pharmaceutical use” (priority 2005, dated 2015).
Where two headings read alike, the source gives them in different places.

Legend:
[1] = Storage stability of malathion prepared by the process of the invention, HPLC after storage (Example 7, Table IV); type: physicochemical
Experimental: The malathion prepared by the process of the invention was tested for storage stability. Malathion prepared by the process of the invention was stored under a variety of different temperature and humidity conditions for up to three (3) months. […] The purity of the sample was determined after storage using HPLC.
Table IV presents the analytical data showing storage of two, different batches of malathion after storage under a variety of different conditions.
MeOOSPO, MeOSSPO, malaxon, MeOOSPS, diethyl fumarate, dimethyl malathion, methyl malathion, O,O-methyl, ethyl S-(1,2-dicarboethoxy)ethyl phosphorodithioate, tetraethyl dithiosuccinate, isomalathion, malathion carboxylic acids, mercaptosuccinate and the tetraethyl thiodisuccinate were assayed for by HPLC. The mobile phase was a mixture of water, acetonitrile and methanol (480:370:150) and one drop of 85% phosphoric acid for each […] of mobile phase. Method validation was performed and system reproducibility, linearity, repeatability, intermediate precision, recovery of related compounds and sensitivity were assessed according to standard methology (U.S. Pharmacopeia, 2004, U.S. Pharmacopeial Convention, Inc., 12601 Twinbrook Parkway, Rockville, Md. 20852). If necessary, the mobile phase composition and/or flow rate were adjusted to meet the chromatographic parameters.

[2] = can cause death from hypoxia; cited from earlier work
[3] = target: acetylcholinesterase (Homo sapiens, UniProt P22303); conditions: cited from earlier work
[4] = tested on: people; conditions: after spraying during insect eradication programs; cited from earlier work
[5] = tested on: cholinesterase enzymes; conditions: cited from earlier work
[6] = tested on: mice; conditions: after storage for 6 months at 40° C.; cited from earlier work
[7] = cited from earlier work
[8] = Storage at 25° C., 60% relative humidity for 3 months
[9] = Storage at 30° C. and 60% relative humidity for 3 months
[10] = Storage at 40° C. and 75% relative humidity for 3 months

acetylcholinesterase, sequence (P22303 32-614): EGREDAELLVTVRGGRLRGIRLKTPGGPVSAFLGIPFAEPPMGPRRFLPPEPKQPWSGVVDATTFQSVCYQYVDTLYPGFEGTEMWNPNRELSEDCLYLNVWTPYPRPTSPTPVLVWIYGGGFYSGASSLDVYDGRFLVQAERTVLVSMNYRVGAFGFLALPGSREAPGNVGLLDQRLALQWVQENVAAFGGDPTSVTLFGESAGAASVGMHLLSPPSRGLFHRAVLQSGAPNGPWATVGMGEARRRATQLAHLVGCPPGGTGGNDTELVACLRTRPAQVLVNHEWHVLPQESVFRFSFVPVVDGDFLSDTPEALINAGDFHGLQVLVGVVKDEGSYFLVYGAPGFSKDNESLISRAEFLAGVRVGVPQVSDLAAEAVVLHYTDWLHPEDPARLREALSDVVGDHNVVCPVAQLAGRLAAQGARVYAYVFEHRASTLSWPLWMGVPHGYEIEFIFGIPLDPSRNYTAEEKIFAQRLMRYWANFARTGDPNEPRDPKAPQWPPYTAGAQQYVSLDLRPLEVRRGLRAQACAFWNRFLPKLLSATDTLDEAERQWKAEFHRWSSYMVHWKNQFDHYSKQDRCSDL

Structure (SMILES): CCOC(=O)CC(SP(=S)(OC)OC)C(=O)OCC (centres unmarked) [Batch I, [(dimethoxyphosphinothioyl)thio]butanedioic acid diethyl ester]
- Diethyl fumarate in malathion ([1]; Baseline, time 0): <0.01 % (w/w)
- Dimethyl malathion in malathion ([1]; Baseline, time 0): <0.02 % (w/w)
- Malaoxon in malathion ([1]; Baseline, time 0): <0.05 % (w/w)
- Malathion Purity ([1]; Baseline, time 0): 99.5 % (w/w)
- MeOOSPO in malathion ([1]; Baseline, time 0): <0.04 % (w/w)
- MeOOSPS in malathion ([1]; Baseline, time 0): 0.1 % (w/w)
- MeOSSPO in malathion ([1]; Baseline, time 0): <0.02 % (w/w)
- Methyl malathion in malathion ([1]; Baseline, time 0): 0.06 % (w/w)
- Diethyl fumarate in malathion ([1]; Storage at 5° C. for 3 months): <0.01 % (w/w)
- Dimethyl malathion in malathion ([1]; Storage at 5° C. for 3 months): <0.02 % (w/w)
- Malaoxon in malathion ([1]; Storage at 5° C. for 3 months): <0.02 % (w/w)
- Malathion Purity ([1]; Storage at 5° C. for 3 months): 99.7 % (w/w)
- MeOOSPO in malathion ([1]; Storage at 5° C. for 3 months): <0.04 % (w/w)
- MeOOSPS in malathion ([1]; Storage at 5° C. for 3 months): 0.1 % (w/w)
- MeOSSPO in malathion ([1]; Storage at 5° C. for 3 months): <0.02 % (w/w)
- Methyl malathion in malathion ([1]; Storage at 5° C. for 3 months): 0.06 % (w/w)
- Diethyl fumarate in malathion [1, 8]: <0.01 % (w/w)
- Dimethyl malathion in malathion [1, 8]: <0.02 % (w/w)
- Malaoxon in malathion [1, 8]: <0.02 % (w/w)
- Malathion Purity [1, 8]: 99.0 % (w/w)
- MeOOSPO in malathion [1, 8]: <0.04 % (w/w)
- MeOOSPS in malathion [1, 8]: 0.1 % (w/w)
- MeOSSPO in malathion [1, 8]: <0.02 % (w/w)
- Methyl malathion in malathion [1, 8]: 0.06 % (w/w)
- Diethyl fumarate in malathion [1, 9]: <0.01 % (w/w)
- Dimethyl malathion in malathion [1, 9]: <0.02 % (w/w)
- Malaoxon in malathion [1, 9]: <0.02 % (w/w)
- Malathion Purity [1, 9]: 99.0 % (w/w)
- MeOOSPO in malathion [1, 9]: <0.04 % (w/w)
- MeOOSPS in malathion [1, 9]: 0.1 % (w/w)
- MeOSSPO in malathion [1, 9]: <0.02 % (w/w)
- Methyl malathion in malathion [1, 9]: 0.06 % (w/w)
- Diethyl fumarate in malathion [1, 10]: <0.02 % (w/w)
- Dimethyl malathion in malathion [1, 10]: <0.02 % (w/w)
- Malaoxon in malathion [1, 10]: <0.05 % (w/w)
- Malathion Purity [1, 10]: 97.5 % (w/w)
- MeOOSPO in malathion [1, 10]: 0.05 % (w/w)
- MeOOSPS in malathion [1, 10]: 0.2 % (w/w)
- MeOSSPO in malathion [1, 10]: <0.02 % (w/w)
- Methyl malathion in malathion [1, 10]: 0.06 % (w/w)

Structure (SMILES): CCOC(=O)CC(SP(=S)(OC)OC)C(=O)OCC (centres unmarked) [Batch II, [(dimethoxyphosphinothioyl)thio]butanedioic acid diethyl ester]
- Diethyl fumarate in malathion ([1]; Baseline, time 0): <0.06 % (w/w)
- Dimethyl malathion in malathion ([1]; Baseline, time 0): <0.02 % (w/w)
- Malaoxon in malathion ([1]; Baseline, time 0): <0.05 % (w/w)
- Malathion Purity ([1]; Baseline, time 0): 99.5 % (w/w)
- MeOOSPO in malathion ([1]; Baseline, time 0): <0.04 % (w/w)
- MeOOSPS in malathion ([1]; Baseline, time 0): 0.09 % (w/w)
- MeOSSPO in malathion ([1]; Baseline, time 0): <0.02 % (w/w)
- Methyl malathion in malathion ([1]; Baseline, time 0): 0.08 % (w/w)
- Diethyl fumarate in malathion ([1]; Storage at 5° C. for 3 months): <0.01 % (w/w)
- Dimethyl malathion in malathion ([1]; Storage at 5° C. for 3 months): <0.02 % (w/w)
- Malaoxon in malathion ([1]; Storage at 5° C. for 3 months): <0.05 % (w/w)
- Malathion Purity ([1]; Storage at 5° C. for 3 months): 99.7 % (w/w)
- MeOOSPO in malathion ([1]; Storage at 5° C. for 3 months): <0.04 % (w/w)
- MeOOSPS in malathion ([1]; Storage at 5° C. for 3 months): 0.1 % (w/w)
- MeOSSPO in malathion ([1]; Storage at 5° C. for 3 months): <0.09 % (w/w)
- Methyl malathion in malathion ([1]; Storage at 5° C. for 3 months): 0.07 % (w/w)
- Diethyl fumarate in malathion [1, 8]: <0.01 % (w/w)
- Dimethyl malathion in malathion [1, 8]: <0.02 % (w/w)
- Malaoxon in malathion [1, 8]: <0.05 % (w/w)
- Malathion Purity [1, 8]: 99.4 % (w/w)
- MeOOSPO in malathion [1, 8]: <0.04 % (w/w)
- MeOOSPS in malathion [1, 8]: 0.09 % (w/w)
- MeOSSPO in malathion [1, 8]: <0.02 % (w/w)
- Methyl malathion in malathion [1, 8]: 0.07 % (w/w)
- Diethyl fumarate in malathion [1, 9]: <0.01 % (w/w)
- Dimethyl malathion in malathion [1, 9]: <0.02 % (w/w)
- Malaoxon in malathion [1, 9]: <0.05 % (w/w)
- Malathion Purity [1, 9]: 99.1 % (w/w)
- MeOOSPO in malathion [1, 9]: <0.04 % (w/w)
- MeOOSPS in malathion [1, 9]: 0.1 % (w/w)
- MeOSSPO in malathion [1, 9]: <0.02 % (w/w)
- Methyl malathion in malathion [1, 9]: 0.08 % (w/w)
- Diethyl fumarate in malathion [1, 10]: <0.02 % (w/w)
- Dimethyl malathion in malathion [1, 10]: <0.02 % (w/w)
- Malaoxon in malathion [1, 10]: <0.05 % (w/w)
- Malathion Purity [1, 10]: 97.4 % (w/w)
- MeOOSPO in malathion [1, 10]: 0.05 % (w/w)
- MeOOSPS in malathion [1, 10]: 0.2 % (w/w)
- MeOSSPO in malathion [1, 10]: <0.02 % (w/w)
- Methyl malathion in malathion [1, 10]: 0.08 % (w/w)

Structure (SMILES): CCOC(=O)CC(SP(=O)(OC)SC)C(=O)OCC (centres unmarked) [Isomalathion]
- pulmonary toxicity [2]: exhibit pulmonary toxicity
- activity against acetylcholinesterase as compared with malathion [3]: approximately 1,000 times
- death in people [4]: cause death in people

Structure (SMILES): CCOC(=O)CC(SP(=O)(OC)OC)C(=O)OCC (centres unmarked) [Malaoxon]
- inhibition of cholinesterase enzymes [5]: inhibits cholinesterase enzymes

Structure (SMILES): COP(=O)(OC)SC [MeOOSPO, O,O,S-trimethyl phosphorothioate]
- pulmonary toxicity [2]: exhibit pulmonary toxicity

Structure (SMILES): CCOC(=O)CC(SP(=S)(OC)OCC)C(=O)OCC (stereo not drawn) [O,O-methyl,ethyl-S-(1,2-dicarboethoxy)ethyl-phosphorodithioate]
- pulmonary toxicity [2]: exhibit pulmonary toxicity

Structure (SMILES): CCOC(=O)CC(SP(=S)(OC)OC)C(=O)OCC (centres unmarked) [malathion prepared by the process of the invention] [[(dimethoxyphosphinothioyl)thio]butanedioic acid diethyl ester]
- Malathion Purity ([1]; Storage at 5° C. for 3 months): greater than 98.5 % (w/w)
- Malathion Purity [1, 8]: greater than 98.5 % (w/w)
- Malathion Purity [1, 9]: greater than 98.5 % (w/w)

Structure (SMILES): CCOC(=O)CC(SP(=S)(OC)OC)C(=O)OCC (centres unmarked) [malathion, [(dimethoxyphosphinothioyl)thio]butanedioic acid diethyl ester]
- increase in toxicity as measured by LD50 in mice [6]: 35%
- isomalathion content of malathion ([7]; after storage for 6 months at 40° C.): 0.45%
- isomalathion content of malathion ([7]; before storage): 0.2%
